How the values were obtained:
Experiment in all cases: normalised response (% of control), CellTox Green; higher = less cell death (100 = DMSO, 0 = benzethonium chloride kill control)
Details in all cases: incubation time: 72 h
[1] = system: BT-549
Method in brief: (§1)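 Every value is a normalised signal taken at one concentration of a dilution series. Compound was placed in 384-well plates at 5 concentrations in 10-fold steps over a compound-specific 10,000-fold range, and 20 µl of breast cancer cell suspension was seeded onto it. After 72 h, CellTox Green fluorescence (485/520 nm) was measured first and CellTiter-Glo luminescence second, following 10 min at room temperature. Each plate was scaled to 0.1 % DMSO (100) and a positive kill control (0).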

[2] = system: DU-4475
Method in brief: as §1

[3] = system: Hs578T
Method in brief: as §1

[4] = system: MCF-10A
Method in brief: as §1

[5] = system: MDA-MB-436
Method in brief: as §1

[6] = system: MDA-MB-453
Method in brief: as §1

[7] = system: MDA-MB-468
Method in brief: as §1

| Structure (SMILES) | normalised response [1] [%] | normalised response [2] [%] | normalised response [3] [%] | normalised response [4] [%] | normalised response [5] [%] | normalised response [6] [%] | normalised response [7] [%] |
| --- | --- | --- | --- | --- | --- | --- | --- |
| N#Cc1ccc(COC[C@H]2O[C@@H](n3c(NCc4ccc(Cl)c(Cl)c4)nc4c(N)ncnc43)[C@H](O)[C@@H]2O)cc1 (1000 nM) | 123 | 103 | 103 | 92.3 | 96.5 | 112 | 143 |
| N#Cc1ccc(COC[C@H]2O[C@@H](n3c(NCc4ccc(Cl)c(Cl)c4)nc4c(N)ncnc43)[C@H](O)[C@@H]2O)cc1 (10000 nM) | 111 | 104 | 120 | 103 | 87.8 | 102 | 103 |
| COc1cc(OC2CCN(C)CC2)ccc1Nc1ncc2c(n1)n(C1CCCC1)c(=O)n2C [AZ 3146] (1000 nM) | 120 | 97.9 | 97.5 | 99.3 | 86 | 109 | 88.7 |
| COc1cc(OC2CCN(C)CC2)ccc1Nc1ncc2c(n1)n(C1CCCC1)c(=O)n2C [AZ 3146] (10000 nM) | 105 | 90.2 | 98.7 | 71 | 47.3 | 105 | 75.5 |
| CN(C)c1nc(N(C)C)nc(N(C)C)n1 [Altretamine] (1000 nM) | 107 | 103 | 98.1 | 78 | 80.3 | 105 | 140 |
| CN(C)c1nc(N(C)C)nc(N(C)C)n1 [Altretamine] (10000 nM) | 97.2 | 98.3 | 112 | 102 | 97.5 | 105 | 152 |
| O=C(/C=C/c1cccc(S(=O)(=O)Nc2ccccc2)c1)NO [Belinostat] (1000 nM) | 129 | 75.8 | 77.3 | 70 | 79.3 | 99.5 | 97.7 |
| O=C(/C=C/c1cccc(S(=O)(=O)Nc2ccccc2)c1)NO [Belinostat] (10000 nM) | 103 | 76 | 37.3 | 54.6 | 112 | 88.7 | 43.3 |
| O=P1(N(CCCl)CCCl)NCCCO1 (stereo not given) [Cyclophosphamide] (4000 nM) | 98.7 | 102 | 62.1 | 86.7 | 97.3 | 105 | 100 |
| O=P1(N(CCCl)CCCl)NCCCO1 (stereo not given) [Cyclophosphamide] (40000 nM) | 100 | 100 | 50.5 | 76.1 | 105 | 106 |  |
| C=C1C[C@@H]2[C@H](CC[C@]3(C)C(=O)CC[C@@H]23)[C@@]2(C)C=CC(=O)C=C12 [Exemestane] (1000 nM) | 113 | 109 |  | 112 | 95.1 | 112 | 149 |
| C=C1C[C@@H]2[C@H](CC[C@]3(C)C(=O)CC[C@@H]23)[C@@]2(C)C=CC(=O)C=C12 [Exemestane] (10000 nM) | 81.2 | 106 | 117 | 111 | 90 | 106 | 103 |
| COc1cc2ncnc(Nc3ccc(F)c(Cl)c3)c2cc1OCCCN1CCOCC1 [Gefitinib] (1000 nM) | 123 | 101 | 95.9 | 99.2 | 91.5 | 98.3 | 125 |
| COc1cc2ncnc(Nc3ccc(F)c(Cl)c3)c2cc1OCCCN1CCOCC1 [Gefitinib] (10000 nM) | 114 | 96.9 | 102 | 82.9 | 98.4 | 79 | 133 |
| O=C(Nc1ccncc1)C(=O)c1cn(Cc2ccc(Cl)cc2)c2ccccc12 [Indibulin] (1000 nM) | 117 | 101 | 94.6 | 87.2 | 80.4 | 106 | 91.5 |
| O=C(Nc1ccncc1)C(=O)c1cn(Cc2ccc(Cl)cc2)c2ccccc12 [Indibulin] (10000 nM) | 95.4 | 106 | 76.3 | 84 | 93.6 | 105 | 63.6 |
| NC(=O)c1ccc(I)c([N+](=O)[O-])c1 [Iniparib] (1000 nM) | 121 | 95.2 | 56.3 | 81.6 | 93.9 | 88.2 | 125 |
| NC(=O)c1ccc(I)c([N+](=O)[O-])c1 [Iniparib] (10000 nM) | 113 | 94.3 |  | 77.3 | 77.5 | 99.6 | 146 |
| CCc1c2c(nc3ccc(OC(=O)N4CCC(N5CCCCC5)CC4)cc13)-c1cc3c(c(=O)n1C2)COC(=O)[C@]3(O)CC [Irinotecan] (1000 nM) | 121 | 99.1 | 81.9 |  | 44.5 | 107 | 141 |
| CCc1c2c(nc3ccc(OC(=O)N4CCC(N5CCCCC5)CC4)cc13)-c1cc3c(c(=O)n1C2)COC(=O)[C@]3(O)CC [Irinotecan] (10000 nM) | 107 | 84.8 | 104 | 100 | 97.1 | 109 | 119 |
| Oc1ccc2c(c1)CC[C@H](c1ccccc1)[C@@H]2c1ccc(OCCN2CCCC2)cc1 [Lasofoxifene] (100 nM) | 113 | 105 | 84.9 | 111 | 104 | 88 | 111 |

| Structure (SMILES) | normalised response [1] [%] | normalised response [2] [%] | normalised response [3] [%] | normalised response [4] [%] | normalised response [5] [%] | normalised response [6] [%] | normalised response [7] [%] |
| --- | --- | --- | --- | --- | --- | --- | --- |
| Oc1ccc2c(c1)CC[C@H](c1ccccc1)[C@@H]2c1ccc(OCCN2CCCC2)cc1 [Lasofoxifene] (1000 nM) | 118 | 102 | 68.7 | 67.1 | 109 | 104 | 178 |
| Cc1ccc(NC(=O)c2ccc(CN3CCN(C)CC3)cc2)cc1Nc1nc(-c2cccnc2)cs1 [Masitinib] (1000 nM) | 110 | 100 | 97.8 | 103 | 68.7 | 102 | 177 |
| Cc1ccc(NC(=O)c2ccc(CN3CCN(C)CC3)cc2)cc1Nc1nc(-c2cccnc2)cs1 [Masitinib] (10000 nM) | 109 | 100 | 70.7 | 90.8 | 31.8 | 87.1 | 37 |
| O=C(Nc1cccnc1)N1CCC(Cc2cccc(Oc3ccc(C(F)(F)F)cn3)c2)CC1 [PF-3845] (1000 nM) | 107 | 108 | 115 | 115 | 108 | 108 | 132 |
| O=C(Nc1cccnc1)N1CCC(Cc2cccc(Oc3ccc(C(F)(F)F)cn3)c2)CC1 [PF-3845] (10000 nM) | 111 | 101 | 90.3 | 103 | 101 | 63.6 | 172 |
| Cc1[nH]c2ccccc2c1CCNCc1ccc(/C=C/C(=O)NO)cc1 [Panobinostat] (100 nM) | 105 | 62.1 | -15.2 | 99.6 | 10.6 | 88.3 | 82.5 |
| Cc1[nH]c2ccccc2c1CCNCc1ccc(/C=C/C(=O)NO)cc1 [Panobinostat] (1000 nM) | 69.6 | 68.2 | -12.8 | 34.9 | 86.6 | 75.5 | -0.17 |
| COCC1(CO)C(=O)C2CCN1CC2 (stereo not given) [Prima-1 Met] (1000 nM) | 112 | 104 | 108 | 101 | 71 | 107 | 103 |
| COCC1(CO)C(=O)C2CCN1CC2 (stereo not given) [Prima-1 Met] (10000 nM) | 63.4 | 107 | 117 | 106 | 62.3 | 104 | 119 |
| CNC(=O)c1cc(Oc2ccc(NC(=O)Nc3ccc(Cl)c(C(F)(F)F)c3)c(F)c2)ccn1 [Regorafenib] (1000 nM) | 116 | 102 | 110 | 101 | 108 | 107 | 143 |
| CNC(=O)c1cc(Oc2ccc(NC(=O)Nc3ccc(Cl)c(C(F)(F)F)c3)c(F)c2)ccn1 [Regorafenib] (10000 nM) | 109 | 92.5 | 109 | 94.5 | 113 | 98.3 | 152 |
| CO[C@H]1C[C@@H]2CC[C@@H](C)[C@@](O)(O2)C(=O)C(=O)N2CCCC[C@H]2C(=O)O[C@H]([C@H](C)C[C@@H]2CC[C@@H](OP(C)(C)=O)[C@H](OC)C2)CC(=O)[C@H](C)/C=C(\C)[C@@H](O)[C@@H](OC)C(=O)[C@H](C)C[C@H](C)/C=C/C=C/C=C/1C [Ridaforolimus] (100 nM) | 125 | 100 | 116 | 97.3 | 53.1 | 104 | 196 |
| c1ccc2c(CCNc3ccc(Nc4ccncc4)cc3)c[nH]c2c1 [Serdemetan] (1000 nM) | 124 | 94 | 92.3 | 96.9 | 81.8 | 102 | 12.4 |
| c1ccc2c(CCNc3ccc(Nc4ccncc4)cc3)c[nH]c2c1 [Serdemetan] (10000 nM) | 86.7 | 68.3 | 118 | 89.8 | 99.5 | 95.2 | 124 |
| CN(C)CCOc1ccc(/C(=C(/CCCl)c2ccccc2)c2ccccc2)cc1 [Toremifene] (1000 nM) | 99.3 | 99.9 | 55.3 | 108 | 70.4 | 106 | 101 |
| CN(C)CCOc1ccc(/C(=C(/CCCl)c2ccccc2)c2ccccc2)cc1 [Toremifene] (10000 nM) | 82 | 94.6 | 103 | 69.2 | 91.7 | 86.4 | 9.03 |
| CC(C)C[C@@H](C(=O)N[C@H](C(=O)OC1CCCC1)c1ccccc1)[C@H](O)C(=O)NO [Tosedostat] (1000 nM) | 70.1 | 101 | 89 | 80.4 | 75.5 | 95.1 | 33.4 |
| CC(C)C[C@@H](C(=O)N[C@H](C(=O)OC1CCCC1)c1ccccc1)[C@H](O)C(=O)NO [Tosedostat] (10000 nM) | -46.2 | 97.8 | 89.8 | 86.8 | 70.6 | 86.1 | -9 |
| COc1cc2/c(=N/c3ccc(Br)cc3F)nc[nH]c2cc1OCC1CCN(C)CC1 [Vandetanib] (1000 nM) | 114 | 96.9 | 105 | 84 | 84.6 | 96.7 | 128 |
| COCC[n+]1c2c(n(Cc3cnccn3)c1C)C(=O)c1ccccc1C2=O [YM155] (1000 nM) | 14.8 | 77 | 92.9 | -47.8 | -1.05 | 42.2 | -55.5 |
| COCC[n+]1c2c(n(Cc3cnccn3)c1C)C(=O)c1ccccc1C2=O [YM155] (10000 nM) | 8.26 | 68.1 | 18.1 | -38.3 | 32.2 | 28.4 | -110 |

From the supplement of paper PMC4862054
